Key:
APOE*3Leiden.CETP mice [1] = test: Liver weight and hepatic lipid analysis; details: atorvastatin 3.6 mg/kg/d alone; 18 weeks
Source text: Mice received a semi-synthetic cholesterol-rich diet, containing 15% (w/w) cacao butter and 0.15% cholesterol (Western-type diet [WTD]; Hope Farms, Woerden, The Netherlands) for a run-in period of 3 weeks to increase plasma total cholesterol (TC) levels up to ˜15 mmol/L. Body weight (BW) and food intake were monitored regularly during the study. […] At the end of the treatment period, all animals were sacrificed by CO2 inhalation. Livers and hearts were isolated to assess hepatic LDLR protein levels, lipid content, atherosclerosis development, and plaque composition.
Liver tissue samples were homogenized in phosphate-buffered saline, and the protein content was measured. Lipids were extracted, separated by high-performance thin-layer chromatography on silica gel plates, and analyzed with TINA2.09 software (Raytest Isotopen Messgerate Straubenhardt, Germany), as previously described by Post et al. (Hepatology. 1999; 30:491-500).

APOE*3Leiden.CETP mice [2] = test: Plasma total cholesterol, triglycerides and lipoprotein profiles; type: in vivo, mouse; details: for TC reductions in lipoprotein profile (FPLC): lipoprotein separation by FPLC, FIG. 1C/1D; for average plasma TC, change compared to control: alone or + atorvastatin 3.6 mg/kg/d in diet
Source text: Ninety female APOE*3Leiden.CETP transgenic mice (9 to 13 weeks of age), expressing human CETP under control of its natural flanking regions, were used. During the study, mice were housed under standard conditions with a 12-hour light-dark cycle and had free access to food and water. Animal experiments were approved by the Institutional Animal Care and Use Committee of The Netherlands Organization for Applied Research.
Plasma was isolated from blood collected in ethylenediaminetetraacetic acid (EDTA)-coated cups via tail vein bleeding after a 4-hour fast every 2 to 4 weeks. Plasma TC and TG were determined using enzymatic kits according to the manufacturer's protocols (cat. no. 1458216 and cat. no. 1488872, respectively; Roche/Hitachi) and average plasma TC and TG levels were calculated. Lipoprotein profiles for TC were measured after lipoprotein separation by fast protein liquid chromatography (FPLC) after 4, 12, and 18 weeks of treatment. MAb316P levels were measured by a human Fc enzyme-linked immunosorbent assay.

APOE*3Leiden.CETP mice [3] = test: Histological assessment of atherosclerosis in the aortic root; type: in vivo, mouse; details: 18 weeks; for lesion severity (severe type IV-V lesions) compared with the control / lesion-free sections / undiseased segments compared with the control: dose of mAb316P not specified
Source text: (§1) Hearts were isolated, fixed in formalin, and embedded in paraffin. Cross-sections (5 μm each) of the entire aortic root area were stained with hematoxylin-phloxin-saffron. For each mouse, four sections at intervals of 50 μm were used for quantitative and qualitative assessment of the atherosclerotic lesions. To determine atherosclerotic lesion size and severity, the lesions were classified into five categories according to the American Heart Association classification: I) early fatty streak, II) regular fatty streak, III) mild plaque, IV) moderate plaque, and V) severe plaque. Total lesion area and number of lesions per cross-section, as well as the percentage undiseased segments, were calculated. To assess lesion severity as a percentage of all lesions, type I-Ill lesions were classified as mild lesions, and type IV-V lesions were classified as severe lesions. To determine the total plaque load in the thoracic aorta, perfusion-fixed aortas (from the aortic origin to the diaphragm) were cleaned of extravascular fat, opened longitudinally, pinned en face, and stained for lipids with oil-red O as described previously by Verschuren et al. (Arterioscler Thromb Vasc Biol. 2005; 25:161-167). Data were normalized for analyzed surface area and expressed as percentage of the stained area. Photos/images were taken with the Olympus BX51 microscope and lesion areas were measured using Cell D imaging software (Olympus Soft Imaging Solutions).

APOE*3Leiden.CETP mice [4] = test: Flow cytometric analysis of white blood cells (PBMC); type: in vivo, mouse
Source text: After 8 weeks of treatment, peripheral blood mononuclear cells (PBMCs) were isolated from fresh blood samples and were sorted into GR-1+ (neutrophils/granulocytes), GR-1− (lymphocytes/monocytes), CD3+ (T-cells), CD19+ (B-cells) and CD11b+/Ly6C^low and CD11b+/Ly6C^hi (monocytes) cells using flow cytometric (FACS) analysis. The following conjugated monoclonal antibodies were used from Becton Dickinson: GR-1 FITC, CD3 PerCpCy5-5, CD19 V450, CD11b APC and Ly6C PE-Cy7.

hepatic LDLR protein = test: Hepatic LDLR protein levels (Western blot); type: in vivo, mouse; details: alone or + atorvastatin 3.6 mg/kg/d, 18 weeks
Description: Liver tissues were homogenized in lysis buffer (50 mM Tris-HCL [pH=7.4], 150 mM NaCl, 0.25% deoxycholic acid, 1% NP-40 [Igepal], 1 mM EDTA, protease inhibitor cocktail [complete, Roche], 1 mM PMSF, 1 mM Na3VO4) and then centrifuged at 6500 rpm at 4° C. for 30 minutes. Protein concentration in cell lysates was determined by bicinchonic acid protein assay (Thermo Scientific) according to manufacturer's instructions. 50 μg of protein lysates was separated by SDS-PAGE and then transferred to polyvinylidene fluoride membranes (Millipore). Blots were subjected to goat anti-mouse LDLR from R&D Systems and rabbit anti-goat horseradish peroxidase (HRP) from AbD Serotec or mouse anti-α-Tubulin from Sigma and horse anti-mouse HRP from Cell Signaling Technologies (according to the manufacturer's instructions); blots were developed with West Femto Super Signal ECL (Thermo Scientific) and subjected to the Chemi-Doc-it imaging system. Intensities of protein bands were quantified using Image J software.

APOE*3Leiden.CETP mice [5] = test: Total plaque load in the aortic arch (oil-red O); type: in vivo, mouse; details: mAb316P 10 mg/kg, alone or + atorvastatin 3.6 mg/kg/d; 18 weeks
Source text: as §1, with “To determine the total plaque load in the thoracic aorta, perfusion-fixed aortas (from the aortic origin to the diaphragm) were cleaned of extravascular fat, opened longitudinally, pinned en face, and stained for lipids with oil-red O as described previously by Verschuren et al. (Arterioscler Thromb Vasc Biol. 2005; 25:161-167).” left out

[6] = 10 mg/kg MAb316P and/or atorvastatin, after 8 weeks of treatment, mean ± SD
[7] = mAb316P 3 mg/kg weekly s.c., 18 weeks
[8] = mAb316P 10 mg/kg weekly s.c., 18 weeks
[9] = mAb316P 3 mg/kg weekly s.c., alone or + atorvastatin 3.6 mg/kg/d
[10] = mAb316P 10 mg/kg weekly s.c., alone or + atorvastatin 3.6 mg/kg/d
[11] = mAb316P 10 mg/kg, alone or + atorvastatin, 8 weeks

## CC(C)c1c(C(=O)Nc2ccccc2)c(-c2ccccc2)c(-c2ccc(F)cc2)n1CC[C@@H](O)C[C@@H](O)CC(=O)O [atorvastatin, reference compound]
APOE*3Leiden.CETP mice [1]
  liver weight, change compared to the control group: −15%
APOE*3Leiden.CETP mice [2]
  TC reductions in lipoprotein profile (FPLC): confined to apoB-containing lipoproteins
APOE*3Leiden.CETP mice [3]
  lesion severity (severe type IV-V lesions) compared with the control: reduced severity to a lesser extent
  lesion-free sections / undiseased segments compared with the control: no effect
APOE*3Leiden.CETP mice [3]; atorvastatin 3.6 mg/kg/d alone
  atherosclerotic lesion size (aortic root), change compared to the control: −35%
  effect on the number of lesions: no effect
APOE*3Leiden.CETP mice [4]; [6]
  B-cells: 69.5 ± 17.4 % of PBMC population
  CD11b+ Ly6C^hi: 51.2 ± 6.4 % of monocytes
  CD11b+ Ly6C^low: 47.8 ± 6.3 % of monocytes
  Lymphocytes/Monocytes: 94.9 ± 1.6 % of PBMC population
  Monocytes: 5.3 ± 2.4 % of PBMC population
  Neutrophils/Granulocytes: 5.1 ± 1.6 % of PBMC population
  T-cells: 17.0 ± 4.8 % of PBMC population

## mAb316P: human anti-PCSK9 antibody; HCVR SEQ ID NO:1, LCVR SEQ ID NO:6
APOE*3Leiden.CETP mice [2]; alone, or both with atorvastatin 3.6 mg/kg/d, 18 weeks
  TC, 3 mg mAb316P versus 10 mg mAb316P (dose dependence): −14%
APOE*3Leiden.CETP mice [2]
  TC reductions in lipoprotein profile (FPLC): confined to apoB-containing lipoproteins
APOE*3Leiden.CETP mice [2]; [7]
  average plasma TC, change compared to control: −37%
  average plasma TG, change compared to control: −33%
APOE*3Leiden.CETP mice [2]; [8]
  average plasma TC, change compared to control: −46%
  average plasma TG, change compared to control: −39%
Hepatic LDLR protein; mAb316P 3 mg/kg weekly s.c.
  Hepatic LDLR protein levels, change vs control: +80%
Hepatic LDLR protein; mAb316P 10 mg/kg weekly s.c.
  Hepatic LDLR protein levels, change vs control: +133%
APOE*3Leiden.CETP mice [3]
  lesion severity (severe type IV-V lesions) compared with the control: fewer severe (type IV-V) lesions
  lesion-free sections / undiseased segments compared with the control: more lesion-free sections
APOE*3Leiden.CETP mice [3]; [9]
  atherosclerotic lesion size (aortic root), change compared to the control: −71%
  number of lesions per cross-section, change compared to the control: −17%
APOE*3Leiden.CETP mice [3]; [10]
  atherosclerotic lesion size (aortic root), change compared to the control: −88%
  number of lesions per cross-section, change compared to the control: −30%
APOE*3Leiden.CETP mice [5]
  total plaque area in the aortic arch, change vs control: −67%
APOE*3Leiden.CETP mice [4]; [6]
  B-cells: 66.3 ± 15.0 % of PBMC population
  CD11b+ Ly6C^hi: 57.5 ± 8.4 % of monocytes
  CD11b+ Ly6C^low: 40.0 ± 8.0 % of monocytes
  Lymphocytes/Monocytes: 92.9 ± 2.0 % of PBMC population
  Monocytes: 8.9 ± 2.5 % of PBMC population
  Neutrophils/Granulocytes: 7.1 ± 2.0 % of PBMC population
APOE*3Leiden.CETP mice [4]; [11]
  anti-inflammatory Ly6C^low monocytes, change vs control: +12%
  granulocytes/neutrophils (as % of PBMC population), change vs control: −20%
  monocytes (as % of PBMC population), change vs control: −28%
  pro-inflammatory Ly6C^hi monocytes, change vs control: −8%

Reference: patent US10995150B2, “Methods for inhibiting atherosclerosis by administering an anti-PCSK9 antibody” (REGENERON PHARMACEUTICALS, INC., priority 2013, dated 2021)
